According to patent US20080312209A1, “Piperazine Heteroaryl Derivatives as Gpr38 Agonists” (Glaxo Group Limited, priority 2005, published 2008):
Where a name gives a salt, the structure may show the parent alone.

Tests used:
hGPR38R [1] = biological target: T1, hGPR38R (Homo sapiens, UniProt O43193); assay: GPR38 FLIPR functional agonist assay; type: cell-based; parameters: expressed in transfected cells; details: HEK-293 cells stably expressing the GPR38 receptor, agonist response, Fluo-4 fluorescence
Protocol: The potencies and efficacies of the compounds of this invention for GPR^38 can be determined by FLIPR assay performed on the human cloned receptor as described herein. It has been found, using the FLIPR functional assay, that compounds of formula (I) appear to be partial or full agonists of the GPR38 receptor.
GPR38FLIPR Functional Agonist Assay Protocol
HEK-293 cells stably expressing the GPR38 receptor were seeded (10,000 cells/well) into poly-D-lysine coated 384-well black-wall, clear-bottom microtitre plates (Becton Dickinson) 24 h prior to assay. On day of assay, cells were washed (×2) with 80 ul of assay buffer (Hanks Balanced Salts Solution (HBSS), 10 mM HEPES, 200 μM Ca^2+, 2.5 mM probenecid) using the EMBLA cell washer. After the final wash, buffer was aspirated to leave a residual volume of 30 ul on the cells. Cells were loaded with 1 μM (final) Fluo-4-AM fluorescent indicator dye (TefLabs) in assay buffer, (20 ul loading solution added to each well using the Multidrop). Plates were incubated for 1 h at 37° C., before being washed (×3) with 80 ul assay buffer using the EMBLA cell washer; 30 ul residual being left after the final wash. Plates were then assayed on a Fluorometric Imaging Plate Reader (FLIPR, Molecular Devices). Test compounds were prepared in assay buffer without probenecid, but containing 0.03% CHAPS. In the FLIPR, 10 ul of test compound was added to the cells and changes in fluorescence measured over a 2 min timeframe. Maximum change in fluorescence over baseline was used to determine agonist response and concentration response curves were constructed, using a 4-parameter logistic equation.
(§1) The following alternative procedure may also be used:
HEK-293 cells stably expressing the GPR38 receptor were seeded (30,000 cells/100 ul growth media/well) into poly-D-lysine coated 96-well black-wall, clear-bottom microtitre plates (Corning) 24 hours prior to assay. On the day of assay the cells were loaded with 2 μM (final) Fluo-4-AM fluorescent indicator dye (Molecular Probes) and 1 mM (final) probenicid in assay buffer (145 mM sodium chloride, 2.5 mM potassium chloride, 10 mM Hepes, 10 mM glucose, 1.2 mM magnesium chloride, 1.5 mM calcium chloride and 0.1% BSA) (50 ul loading solution added to each well). Plates were incubated for 1 hour at 25° C., before being washed 4 times with 100 ul assay buffer using the EMBLA cell washer; 150 ul residual being left after the final wash. The cells were then incubated at 25° C. for 20 minutes and the plates were then assayed on a Fluorometric Imaging Plate Reader (FLIPR, Molecular Devices). Test compounds were prepared in assay buffer without probenecid. In the FLIPR, 50 ul of test compound was added to the cells and changes in fluorescence measured over a 2 minute timeframe. Maximum change in fluorescence over baseline was used to determine agonist response and concentration response curves were constructed, using a 4-parameter logistic equation.
Target sequence in this assay (O43193 whole entry): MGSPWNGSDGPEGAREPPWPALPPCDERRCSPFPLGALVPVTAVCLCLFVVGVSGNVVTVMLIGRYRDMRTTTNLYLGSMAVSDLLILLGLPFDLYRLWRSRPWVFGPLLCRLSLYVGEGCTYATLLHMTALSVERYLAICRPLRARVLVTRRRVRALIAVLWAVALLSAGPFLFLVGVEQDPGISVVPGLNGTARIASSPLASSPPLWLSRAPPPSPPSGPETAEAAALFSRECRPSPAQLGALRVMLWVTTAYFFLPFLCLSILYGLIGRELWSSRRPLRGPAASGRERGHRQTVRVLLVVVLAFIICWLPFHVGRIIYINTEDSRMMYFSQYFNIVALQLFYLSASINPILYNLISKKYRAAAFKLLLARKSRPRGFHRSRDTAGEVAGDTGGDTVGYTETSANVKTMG

hGPR38R [2] = biological target: T1, hGPR38R; assay: GPR38 GTPγS functional agonist assay; type: biochemical; parameters: expressed in transfected cells; host or cells: HEK293 (transient transfection; P2 membrane fractions)
Protocol: The potencies and intrinsic activities of the compounds of this invention can also be determined according to the [35S]GTPγS functional assay which is described herein. It has been found, using the [35S]GTPγS functional assay, that compounds of formula (I) appear to be partial or full agonists of the GPR38 receptor.
GPR38GTPγS Functional Agonist Assay Protocol
For each compound being assayed, in an Opti clear bottom 96 well plate, is added:—
(a) 20 μl of test compound (or 10 μl of guanosine 5′-triphosphate (GTP) as non-specific binding control) diluted to required concentration in assay buffer (20 mM N-2-Hydroxyethylpiperazine-N′-2-ethanesulfonic acid (HEPES)+100 mM NaCl+10 mM MgCl2, pH adjusted to 7.4 with NaOH); (b) 60 μl bead/membrane/GDP mix prepared by suspending wheat germ agglutinin-polyvinyltoluene (WGA-PVT) scintillation proximity assay (SPA) beads at 100 mg/ml in assay buffer followed by mixing with membrane (prepared in accordance with the methodology described above) and diluting in assay buffer to give a final volume of 60 μl which contains 10 μg protein and 0.5 mg bead per well—mixture is pre-mixed at 4° C. for 30 min on a roller and just prior to addition to the plate, 10 μM final concentration of guanosine 5′ diphosphate (GDP—diluted in assay buffer) is added; (c) 20 μl guanosine 5′ [γ35-S]thiotriphosphate, triethylamine salt (Amersham; radioactivity concentration=37 kBq/μl or 1 mCi/ml; Specific Activity 1160 Ci/mmol) diluted to 1.9 nM in assay buffer to give 0.38 nM final.
The plate is incubated on a shaker at 25° C. for 30 min followed by centrifugation for 5 min at 1500 rpm. The plate is read between 3 and 6 h after completion of centrifuge run in a Wallac Microbeta counter on a 1 min normalised tritium count protocol. Data is analysed using a 4-parameter logistic equation. Basal activity used as minimum.
as §1
Target sequence in this assay (O43193 whole entry): as above
Target sequence in this assay (P09471 2-354 partner limits assumed): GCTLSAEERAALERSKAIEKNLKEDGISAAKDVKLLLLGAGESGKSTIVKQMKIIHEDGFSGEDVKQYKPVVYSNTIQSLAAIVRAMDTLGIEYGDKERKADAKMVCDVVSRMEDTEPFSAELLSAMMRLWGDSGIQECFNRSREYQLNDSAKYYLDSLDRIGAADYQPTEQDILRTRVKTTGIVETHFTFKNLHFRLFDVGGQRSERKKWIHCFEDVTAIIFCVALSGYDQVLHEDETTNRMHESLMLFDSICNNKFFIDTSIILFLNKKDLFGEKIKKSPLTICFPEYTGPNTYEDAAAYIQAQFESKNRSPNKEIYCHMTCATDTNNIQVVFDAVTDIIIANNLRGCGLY
Target sequence in this assay (P62873 2-340 partner limits assumed): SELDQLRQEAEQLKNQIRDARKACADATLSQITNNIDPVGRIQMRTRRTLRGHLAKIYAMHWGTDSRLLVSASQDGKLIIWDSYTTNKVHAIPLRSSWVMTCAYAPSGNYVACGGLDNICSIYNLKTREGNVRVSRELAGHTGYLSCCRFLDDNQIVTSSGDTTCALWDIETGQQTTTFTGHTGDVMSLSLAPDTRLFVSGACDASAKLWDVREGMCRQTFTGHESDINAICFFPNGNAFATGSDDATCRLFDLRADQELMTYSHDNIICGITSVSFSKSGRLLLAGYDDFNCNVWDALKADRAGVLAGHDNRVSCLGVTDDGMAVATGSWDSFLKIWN
Target sequence in this assay (P59768 2-68 partner limits assumed): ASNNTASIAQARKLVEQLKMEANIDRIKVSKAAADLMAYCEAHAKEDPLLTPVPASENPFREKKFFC
Membranes are derived from bulk cell cultures of HEK293 cell lines transiently transfected with hGPR38R and Go G-protein. P2 membranes fractions are prepared, aliquoted and stored at −80° C.
For each compound being assayed, the following is added into a white Greiner 384 well plate:—
(a) 1 μl of test compound diluted to required concentration in DMSO. (b) 20 μl bead/membrane/Saponin/GDP mix prepared as follows;—suspension of LEADseeker wheat germ agglutinin (WGA) scintillation proximity assay (SPA) beads at 25 mg/ml in assay buffer (20 mM N-2-Hydroxyethylpiperazine-N′-2-ethanesulfonic acid (HEPES)+100 mM NaCl+10 mM MgCl2, pH adjusted to 7.4 with KOH) containing saponin at 150 ug/ml. Mixing of bead suspension with membranes at 500 ug/ml (prepared in accordance with the methodology described above) and diluting in assay buffer to give a final volume of 20 μl which contains 5 μg protein and 0.25 mg bead per well.
Mixture is pre-mixed for 30 minutes on a roller and just prior to addition to the plate, 3 μM final assay concentration of guanosine 5′ diphosphate (GDP) (diluted in assay buffer) is added.
(c) 25 μl guanosine 5′ [γ35-S]thiotriphosphate, triethylamine salt (Amersham; radioactivity concentration=37 kBq/μl or 1 mCi/ml; Specific Activity 1160 Ci/mmol) diluted to 0.6 nM in assay buffer to give 0.33 nM final assay concentration.
The plate is then spun for 2 minutes at 1500 rpm and then incubated at room temperature for 4 hours. The plate is then read on a Viewlux Plux (Perkin Elmer). Data is analysed using a 4-parameter logistic equation.

[3] = read-out: pEC50 in the FLIPR assay (converted)
[4] = [35S]GTPγS SPA, HEK293 membranes with hGPR38R and Go G-protein, read-out: pEC50 in the GTPγS assay (converted)

Q: For `C[C@@H]1CN(Cc2ccc(-c3cccnc3C(=O)N3CCC(Nc4ccc(F)c(F)c4)CC3)cc2F)C[C@H](C)N1` [Example 12, N-(3,4-difluorophenyl)-1-{[3-(4-{[(3R,5S)-3,5-dimethyl-1-piperazinyl]methyl}-3-fluorophenyl)-2-pyridinyl]carbonyl}-4-piperidinamine], which EC50 (hGPR38R [1]; pEC50 in the FLIPR assay) is on record?
A: < 316 nM

Q: And the EC50 (hGPR38R [2])?
A: < 3160 nM

Q: For `Cc1nc(CN(C)C(=O)CCc2ccc(F)cc2)c(-c2ccc(CN3C[C@@H](C)N[C@@H](C)C3)cc2)s1` [Example 6, N-{[5-(4-{[(3R,5S)-3,5-Dimethyl-1-piperazinyl]methyl}phenyl)-2-methyl-1,3-thiazol-4-yl]methyl}-3-(4-fluorophenyl)-N-methylpropanamide dihydrochloride], which EC50 (hGPR38R [1]; [3]) is on record?
A: < 316 nM

Q: And the EC50 (hGPR38R [2]; [4])?
A: < 3160 nM

Q: Which results are given for `C[C@@H]1CN(Cc2ccc(-n3ccnc3C(=O)N3CCC(Nc4cccc(F)c4)CC3)cc2)C[C@H](C)N1` [Example 21, 1-{[1-(4-{[(3R,5S)-3,5-Dimethyl-1-piperazinyl]methyl}phenyl)-1H-imidazol-2-yl]carbonyl}-N-(3-fluorophenyl)-4-piperidinamine]?
A: EC50 (hGPR38R [1]; pEC50 in the FLIPR assay): < 316 nM; EC50 (hGPR38R [2]): < 3160 nM

Q: With `C[C@H]1CN(Cc2ccc(-c3cccnc3C(=O)N3CCC(Nc4ccc(F)cc4)CC3)cc2)CCN1` [Example 8, N-(4-Fluorophenyl)-1-{[3-(4-{[(3S)-3-methyl-1-piperazinyl]methyl}phenyl)-2-pyridinyl]carbonyl}-4-piperidinamine] as the molecule, how does the EC50 (hGPR38R [1]; pEC50 in the FLIPR assay) read?
A: < 316 nM

Q: What about the EC50 (hGPR38R [2]) of the same molecule?
A: < 3160 nM

Q: How did the EC50 (hGPR38R [1]; pEC50 in the FLIPR assay) turn out when `C[C@@H]1CN(Cc2ccc(-c3cccnc3C(=O)N3CCC(Nc4cccc(F)c4)CC3)cc2F)C[C@H](C)N1` [Example 11, 1-{[3-(4-{[(3R,5S)-3,5-dimethyl-1-piperazinyl]methyl}-3-fluorophenyl)-2-pyridinyl]carbonyl}-N-(3-fluorophenyl)-4-piperidinamine] was run?
A: < 316 nM

Q: What about the EC50 (hGPR38R [2]) of the same molecule?
A: < 3160 nM

Q: With `C[C@@H]1CN(Cc2ccc(-n3ccnc3C(=O)N3CCC(Nc4ccc(F)cc4)CC3)cc2)C[C@H](C)N1` [Example 22, 1 {[1-(4-{[(3R,5S)-3,5-Dimethyl-1-piperazinyl]methyl}phenyl)-1H-imidazol-2-yl]carbonyl}-N-(4-fluorophenyl)-4-piperidinamine] as the molecule, how does the EC50 (hGPR38R [1]; pEC50 in the FLIPR assay) read?
A: < 316 nM

Q: And the EC50 (hGPR38R [2])?
A: < 3160 nM

Q: For `COc1cc(-c2cccnc2C(=O)N2CCC(Nc3ccc(F)cc3)CC2)ccc1CN1C[C@@H](C)N[C@@H](C)C1` [Example 17], which EC50 (hGPR38R [1]; pEC50 in the FLIPR assay) is on record?
A: < 316 nM

Q: And the EC50 (hGPR38R [2])?
A: < 3160 nM

Q: `C[C@@H]1CN(Cc2ccc(-c3cccnc3C(=O)N3CCC(Nc4ccc(F)cc4)C3)cc2)C[C@H](C)N1` (stereo partly drawn) [Example 16, 1-{[3-(4-{[(3R,5S)-3,5-dimethyl-1-piperazinyl]methyl}phenyl)-2-pyridinyl]carbonyl}-N-(4-fluorophenyl)-3-pyrrolidinamine] was tested. Which EC50 (hGPR38R [1]; [3]) did it give?
A: < 316 nM

Q: What about the EC50 (hGPR38R [2]; [4]) of the same molecule?
A: < 3160 nM

Q: Which EC50 (hGPR38R [1]; pEC50 in the FLIPR assay) does the source give for `C[C@@H]1CN(Cc2ccc(-c3cccnc3C(=O)N3CCC(Nc4ccc(F)cc4)CC3)cc2)C[C@H](C)N1` [Example 2, (3R,5S)-3,5-Dimethyl-1-({4-[2-({4-[(4-fluorophenyl)amino]piperidin-1-yl}carbonyl)pyridin-3-yl]phenyl}methyl)piperazine] here?
A: < 316 nM

Q: What about the EC50 (hGPR38R [2]) of the same molecule?
A: < 3160 nM

Q: For `COc1cc(NC2CCN(C(=O)c3ncccc3-c3ccc(CN4C[C@@H](C)N[C@@H](C)C4)c(F)c3)CC2)ccc1F` [Example 28, 1-{[3-(4-{[(3R,5S)-3,5-dimethyl-1-piperazinyl]methyl}-3-fluorophenyl)-2-pyridinyl]carbonyl}-N-[4-fluoro-3-(methyloxy)phenyl]-4-piperidinamine], which EC50 (hGPR38R [1]; [3]) is on record?
A: < 316 nM

Q: And the EC50 (hGPR38R [2]; [4])?
A: < 3160 nM

Q: For `C[C@@H]1CN(Cc2ccc(-c3cccnc3C(=O)N3CCC(Cc4ccc(F)cc4)CC3)cc2)C[C@H](C)N1` [Example 1, (3R,5S)-3,5-Dimethyl-1-({4-[2-({4-[(4-Fluorophenyl)methyl]piperidin-1-yl}carbonyl)pyridin-3-yl]phenyl}methyl)piperazine], which EC50 (hGPR38R [1]; [3]) is on record?
A: < 316 nM

Q: And the EC50 (hGPR38R [2]; [4])?
A: < 3160 nM

Q: For `C[C@@H]1CN(Cc2ccc(-c3cccnc3C(=O)N3CCC(Nc4ccc(F)cc4)CC3)cc2F)C[C@H](C)N1` [Example 9, 1-{[3-(4-{[(3R,5S)-3,5-dimethyl-1-piperazinyl]methyl}-3-fluorophenyl)-2-pyridinyl]carbonyl}-N-(4-fluorophenyl)-4-piperidinamine], which EC50 (hGPR38R [1]; pEC50 in the FLIPR assay) is on record?
A: < 316 nM

Q: What about the EC50 (hGPR38R [2]) of the same molecule?
A: < 3160 nM

Q: For `C[C@@H]1CN(Cc2ccc(-c3cccnc3S(=O)(=O)N3CCC(Nc4ccccc4F)CC3)cc2F)C[C@H](C)N1` [Example 20, 1-{[3-(4-{[(3R,5S)-3,5-Dimethyl-1-piperazinyl]methyl}-3-fluorophenyl)-2-pyridinyl]sulfonyl}-N-(2-fluorophenyl)-4-piperidinamine], which EC50 (hGPR38R [1]; [3]) is on record?
A: < 1000 nM

Q: And the EC50 (hGPR38R [2]; [4])?
A: < 3160 nM

Q: How did the EC50 (hGPR38R [1]; pEC50 in the FLIPR assay) turn out when `C[C@@H]1CN(Cc2ccc(-c3cccnc3C(=O)N3CCC(Nc4ccccc4F)CC3)cc2)C[C@H](C)N1` [Example 31, 1-{[3-(4-{[(3R,5S)-3,5-dimethyl-1-piperazinyl]methyl}phenyl)-2-pyridinyl]carbonyl}-N-(2-fluorophenyl)-4-piperidinamine] was run?
A: < 1000 nM

Q: What about the EC50 (hGPR38R [2]) of the same molecule?
A: < 3160 nM

Q: How did the EC50 (hGPR38R [1]; [3]) turn out when `C[C@@H]1CN(Cc2ccc(-c3cccnc3C(=O)N3CCC(Sc4ccc(Cl)cc4)CC3)cc2F)C[C@H](C)N1` [Example 13, (3R,5S)-1-({4-[2-({4-[(4-chlorophenyl)thio]-1-piperidinyl}carbonyl)-3-pyridinyl]-2-fluorophenyl}methyl)-3,5-dimethylpiperazine] was run?
A: < 316 nM

Q: What about the EC50 (hGPR38R [2]; [4]) of the same molecule?
A: < 3160 nM
